Experimental data as given in PMC6704344, “The Preclinical Pharmacological Study of a Novel Long-Acting Local Anesthetic, a Fixed-Dose Combination of QX-OH/Levobupivacaine, in Rats” (Frontiers in Pharmacology, 2019).
Blank lines part the entries; values can stand above or below the compound they belong to.

Experiments:
[1] = set-up: method as in Yu et al., 2002; conditions: subcutaneous administration; ref Yu et al., 2002; cited from earlier work
[2] = Plasma pharmacokinetics after sciatic nerve block in rats; format: in vivo, rat; conditions: for Tmax / AUC(0-inf) / AUC(0-t) / Cmax / Vd/F / half-life / CL/F: plasma
Excerpt: (§1) In brief, rats were anesthetized by inhaling 1%–2% isoflurane mixed with oxygen through an inhouse-made mask. Then, the rats were placed at right lateral position and inserted vertically using a 23-gauge injector at the middle of the line from the greater trochanter to ischial tuberosity ([Binshtok et al., 2007]; [Zhang et al., 2017b]).
According to the China Food and Drug Administration guidance for preclinical pharmacokinetic study, there should be more than three sampling points adjacent to the time to reach the maximum concentration. […] Thus, to obtain an accurate value of the maximum concentration of Levo-Bupi, we added another time point at 0.33 h. […] Blood samples were maintained in heparinized polypropylene tube separately and then centrifuged at 877 × g for 10 min to gain plasma within 1 h. All the samples were kept at -80°C.
(§2) According to previous study ([Zhang et al., 2017a]), plasma samples were deproteinized by acetonitrile solution with ropivacaine hydrochloride (internal standard, IS). The mixture was centrifuged for 10 min at 28,621 × g in 4°C after fully vortexed. The supernatant was diluted with ultrapure water (50:50, v/v). Muscle and sciatic nerve samples were homogenized by gentleMACS™ Dissociator (Miltenyi Biotec, Germany) and tissue grinder (model SCIENTZ-48, Ningbo, China), respectively. Tissue homogenate was mixed with IS solution by vortex and then centrifuged for 10 min at 28,621 × g. Then, the supernatant was diluted with ultrapure water at equal volume ratio. LC-MS/MS analysis system consist of Agilent 6460 triple quadrupole mass spectrometer and electrospray ionization source (Agilent Technologies, CA, USA). Chromatographic separation was adopted by Agilent Extend C18 column (100 mm × 3 mm, 3.5 μm) at 35°C with isocratic elution containing 0.05% formic acid and acetonitrile at the volume ratio of 78:22 at a flow rate of 0.3 ml/min. Mass spectrometry conditions were in a positive ionization mode: the sheath gas flow rate, 11.0 L/min; sheath gas heater temperature, 300°C; nebulizer pressure, 45 psi; capillary voltage, 3,500 V. MassHunter software was used to analyze data (B.04.00 Build 4.0.479.0, Agilent Technologies, USA).
(§3) The parameters of pharmacokinetics were analyzed by DAS® (Drug and Statistics, version 3.2.1, China) using noncompartmental model. In this study, the following pharmacokinetic parameters were calculated: the value of maximum concentration (Cmax) and the time to acquire (Tmax); the elimination half-life (t1/2); area under curve (AUC) from zero to the last time point (AUC0–last) and from zero to infinity (AUC0–∞); clearance (CL/F), and volume of distribution (Vd/F).

[3] = Drug concentration and pharmacokinetics in muscle near the injection site after sciatic nerve block in rats; format: in vivo, rat
Method: as §1, with “2017b]). Once the bone has been contacted, 200 μl drug was injected.” for “2017b]).”
(§4) On the basis of previous pharmacodynamic studies, nine sampling points were used for determining drug concentration in muscle and sciatic nerve for QX-OH and LL-1: 0.5, 1, 2, 3, 4, 5, 6, 7, and 8 h; four sampling points for Levo-Bupi: 0.5, 1, 2, and 3 h. Due to the destructive sampling, five male rats were sacrificed at each time point for collecting muscle and sciatic nerve nearby the injection site. Then all samples were weighed and frozen at -80°C.
as §2, §3

[4] = Drug concentration and pharmacokinetics in sciatic nerve after sciatic nerve block in rats; format: in vivo, rat
Method: as §1, with “2017b]). Once the bone has been contacted, 200 μl drug was injected.” for “2017b]).”
as §4, §2, §3

[5] = tested on: frog sciatic nerve fibers; test: Compound action potentials (CAPs) from frog sciatic nerve fibers; conditions: LL-1, 35 mM QX-OH, 10 mM Levo-Bupi
Excerpt: According to previous published researches ([Matsushita et al., 2013]; [Ohtsubo et al., 2015]). Nine of frogs were decapitated and then pithed. Then, the sciatic nerve was dissected from the lumbar plexus to the knee. The two ends of isolated sciatic nerves were carefully tied to the wires by threads and placed in Ringer solution (NaCl, 115.5 mmol/L; KCl, 2.0 mmol/L; CaCl2, 1.8 mmol/L; Na2HPO4, 1.3 mmol/L and NaH2PO4, 0.7 mmol/L; pH = 7.4).
The compound action potentials (CAPs) from frog sciatic nerve fibers was recorded by the biological function experiment system (BL-420F, Chengdu Techman Software, China). All practices were carried out at room temperature. The sciatic nerve was loosely placed in three platinum wires and then CAPs were recorded in air using a preamplifier. In this system, two of the platinum wires were used to record CAPs, and the other one was for stimulation. The parameters of stimulation were set as follows: intensity, 3 V; frequency, 1 Hz; rectangular pulses, 0.1 ms. The procedure should be performed quickly in order to avoid the nerve dry. The time of measurement should be less than 2 min. […] In this study, we compared the amplitude of CAPs after using drugs with baseline to present the degree of inhibition from frog sciatic nerve, and which was analyzed using the following equation: CAPs amplitude (%) = CAPs measurement/CAPs baseline × 100%.

HT22 cells = test: Cellular drug uptake assay; format: cell-based, mouse; conditions: LL-1 vs 10 mM Levo-Bupi alone, 10 min incubation, n = 10, p = 0.067
Method: HT22 cell line, a sub-line derived from HT4 cells that were originally immortalized from primary mouse hippocampal neuron, were a generous gift from Dr. Huang (West China Second University Hospital, Sichuan University, China). HT22 cells were cultured in DMEM with high glucose (HyClone, Utah, USA) supplemented with 10% fetal bovine serum (Gibco, New York, USA) and 1% penicillin and streptomycin (HyClone, Utah, USA) in a humidified incubator with 5% CO2 and 95% air at 37°C.
According to previous study ([Brenneis et al., 2014]), cells were plated on 35 mm 6-well dishes (2.5 × 10^5 per well). When cells reached confluence at 70%–80%, the medium was removed, and plates washed with PBS (NaCl, 137.0 mmol/L; KCl, 2.7 mmol/L; KH2PO4, 1.5 mmol/L and Na2HPO4·12H2O, 8.0 mmol/L; pH = 7.4). Thirty wells were divided to incubate with LL-1, 35 mM QX-OH and 10 mM Levo-Bupi for 10 min, and then washed four times with PBS. Cells were translated to polypropylene tube. The cell suspensions were centrifuged at 72 × g and the supernatants were removed by pipette. All samples were frozen at -80°C before testing. Samples were homogenized with 100 µL of saline using a tissue grinder. After mixing 50 μl homogenate, 50 μl acetonitrile, and 10 μl IS, then the mixture was centrifuged for 10 min at 28,621 × g, and the supernatant was injected for analysis.

[6] = set-up: method as in Corvetto et al., 2012; conditions: transversus abdominis plane block; ref Corvetto et al., 2012; cited from earlier work
RAW, N1E and CHO cells = conditions: cited from earlier work
[7] = both sexes, rat, 200 μl, Levobupivacaine alone (single drug), sciatic nerve block, mean ± SEM
[8] = both sexes, rat, given as LL-1, sciatic nerve block, n = 10, mean ± SEM
[9] = male, rat, muscle near the injection site, muscle, given as LL-1, sciatic nerve block, n = 5 per time point, mean ± SEM
[10] = muscle, given as LL-1, sciatic nerve block, n = 5 per time point, mean ± SEM
[11] = male, rat, sciatic nerve, given as LL-1, sciatic nerve block, n = 5 per time point, mean ± SEM
[12] = sciatic nerve, given as LL-1, sciatic nerve block, n = 5 per time point, mean ± SEM

SMILES: CCCCN1CCCCC1C(=O)Nc1c(C)cccc1C (stereo not drawn) [bupivacaine]
time at which Cmax was reached [1]: 0.5 h

change of Tmax in plasma in combination with QX-OH vs alone ([2]; LL-1 vs Levo-Bupi alone, sciatic nerve block): increased by four times
Tmax ([2]; Sprague-Dawley, 200 μl, Levo-Bupi as a single drug, rat sciatic nerve block, preliminary experiment, read-out: time to maximum concentration): 0.5 h
AUC(0-inf) [2, 7]: 509 ± 31.5 ng·h/mL
AUC(0-t) [2, 7]: 471 ± 23.3 ng·h/mL
Cmax [2, 7]: 142 ± 13 ng/mL
Vd/F [2, 7]: 4.81 ± 0.5 L
half-life [2, 7]: 2.61 ± 0.31 h
Tmax ([2]; both sexes, rat, 200 μl, Levobupivacaine alone (single drug), sciatic nerve block, mean ± SEM, read-out: Tmax): 1.07 ± 0.16 h
Cmax ([2]; both sexes, rat, given as LL-1 (35 mM QX-OH/10 mM Levo-Bupi), 200 μl, sciatic nerve block, n = 10, mean ± SEM): 114 ± 10.2 ng/mL
AUC(0-inf) [2, 8]: 819 ± 78.8 ng·h/mL
AUC(0-t) [2, 8]: 651 ± 47.4 ng·h/mL
Vd/F [2, 8]: 3.81 ± 0.7 L
half-life [2, 8]: 4.89 ± 1.77 h
Tmax ([2]; both sexes, rat, given as LL-1, sciatic nerve block, n = 10, mean ± SEM, read-out: Tmax): 4.11 ± 0.39 h
CL/F ([2]; Levobupivacaine alone (single drug), sciatic nerve block, mean ± SEM): 1.32 ± 0.08 L/h
CL/F ([2]; given as LL-1, sciatic nerve block, n = 10, mean ± SEM): 0.78 ± 0.10 L/h
Tmax ([2]; rat, Levo-Bupi in combination with QX-314 (35 mM/10 mM), sciatic nerve block, n = 10, read-out: Tmax): 4 h
increase of concentration in muscle, LL-1 vs single drug ([3]; at the same time points): 2 to 15 times
Tmax ([3]; male, rat, muscle near the injection site, muscle, given as LL-1, sciatic nerve block, n = 5 per time point): 0.5 h
Cmax [3, 9]: 256000 ± 28500 ng/g
Vd/F [3, 9]: 3.01 ± 1.21 L
half-life [3, 9]: 1.38 ± 0.6 h
AUC0–t [3, 10]: 417.58 ± 43.46 µg·h/g
AUC0–∞ [3, 10]: 417.86 ± 43.49 µg·h/g
CL/F [3, 10]: 1.59 ± 0.17 L/h
increase of concentration in sciatic nerve, LL-1 vs single drug ([4]; at the same time points): 1.5 to 24 times
Tmax ([4]; male, rat, sciatic nerve, given as LL-1, sciatic nerve block, n = 5 per time point): 0.5 h
Cmax [4, 11]: 430000 ± 48600 ng/g
Vd/F [4, 11]: 1.23 ± 0.8 L
half-life [4, 11]: 1.28 ± 0.74 h
AUC0–t [4, 12]: 935.82 ± 74.35 µg·h/g
AUC0–∞ [4, 12]: 935.88 ± 74.39 µg·h/g
CL/F [4, 12]: 0.70 ± 0.05 L/h
cellular uptake of Levo-Bupi (HT22 cells): had no difference
SMILES: CCCCN1CCCC[C@H]1C(=O)Nc1c(C)cccc1C [Levobupivacaine, levobupivacaine]
soak time required to block CAPs ([5]; n = 6, mean ± SEM): 14.17 ± 2.01 min
CAPs amplitude (% of baseline) ([5]; within the first 5 min of soaking): 34%
change of Tmax on combining with epinephrine [6]: doubled

SMILES: CC[N+](CC)(CC)CC(=O)Nc1c(C)cccc1C.[Br-] [QX-314]
cellular uptake of QX-314 in presence of bupivacaine (RAW, N1E and CHO cells): enhanced the cellular uptake
